Entries after “also recorded” stand apart in the source; their conditions may differ.
Assays:
Jeko1 TMEM30A−/− cells = experiment: Uptake/engulfment of pHrodo-labeled JeKo-1 PS+ (TMEM30A−/−) cells by CER T cells; type: cell-based; details: for uptake/engulfment of JeKo-1 PS+ (TMEM30A−/−) tumor cell fragments: pHrodo label, in vitro co-culture
Experimental: FIG. 20: FACs and imaging-based detection of pHrodo dye-labeled tumor cell phagocytosis and endocytosis.
Statistical analysis was performed using 2-way ANOVA.

E7 TCR T cells = experiment: APC-like function after co-culture with PS-positive E7-positive SCC152 cells: HLA-DR/CD25 on E7 TCR T cells; type: cell-based; details: for antigen presentation function versus untransduced T cells: FIG. 52, FIG. 53; for antigen presentation function, overall (FIGS. 50-54): repeated experiments; for activation (HLA-DR) of autologous E7 TCR T cells: after co-culture with E7-positive/PS-positive SCC152 cells, vs untransduced T cells or anti-CD19 CAR T cells
From the text: (§1) FIGS. 25A-25B: CER1236 T cells activate E7 TCR T cells via presentation of tumor cell-derived E7 antigen in an HLA-I-dependent manner. […] FIG. 25B: In a separate experiment, induction of HLA-DR on E7 TCR cells following co-culture of CER-1236 with E7 oncoprotein positive/PS-positive SCC152 cells was blocked by HLA-I blocking antibody, but not a control isotype antibody. Bars depict percentage of E7 TCR T cells that express the activation marker, HLA-DR. Error bars show SEM.
as §1, with “36A-36B:” for “25A-25B:”, “6B:” for “25B:”
(§2) CER1183, CER1161, CER1234 or CER1236 T cells were cultured alone or co-cultured with phosphatidylserine-positive HPV E7 oncoprotein-positive cells (TMEM30A−/− SCC152) for 48 hours, followed by positive selection of T cells and co-culture for a 4 days with cell trace violet labeled-HPV E7 TCR T cells.
as §2, with “(TMEM30A−/−SCC152)” for “(TMEM30A−/− SCC152)”, “for” for “for a”, “days (FIG. 51, left graph) or 6 days (FIG. 51, right graph)” for “days”
CER1183, CER1161, CER1234 or CER1236 T cells were cultured alone or co-cultured with phosphatidylserine-positive HPV E7 oncoprotein-positive cells (TMEM30A−/− SCC152) for 48 hours, followed by positive selection of T cells and co-culture for 4 days with cell trace violet labeled-HPV E7 TCR T cells.
CER1183, CER1161, CER1234 or CER1236 T cells were cultured alone or co-cultured with phosphatidylserine-positive HPV E7 oncoprotein-positive cells (TMEM30A−/−SCC152) for 48 hours, followed by positive selection of T cells and co-culture for 6 days with cell trace violet labeled-HPV E7 TCR T cells.
Antigen-presenting cell (APC)-like function of CER T cells was assessed after a 48-hour co-culture with phosphatidylserine-positive E7 oncoprotein-positive cells. T cells were separated and co-cultured for 4 days with cell trace violet-labeled E7 TCR T cells. The activation marker HLA-DR on E7 TCR T cells was analyzed using flow cytometry. Phosphatidylserine-positive SCC152 squamous cell carcinoma cells were engineered by knockout of the TMEM30A gene (a flippase chaperone required for PS internalization). The role of HLA-I in APC-like function was determined by performing the same experiment in the presence of HLA-I blocking or the corresponding isotype antibodies.
Phosphatidylserine exposure on A2780 ovarian cancer cells upon treatment with the small molecule PARP inhibitors niraparib or olaparib was evaluated by annexin v staining to determine the appropriate drug dose. Phosphatidylserine targeting Tim-4 CER constructs designed to enhance cytotoxicity and target-dependent tumor cell fragment uptake were engineered. CER T cell designs were as follows: CER-1234 (Tim-4/CD28/TLR2/CD3z; SEQ ID NO:18); CER-1236 (Tim-4/CD28/CD3z/TLR2; SEQ ID NO:19); and CER-1250 (Tim-4 binding mutant/CD28/TLR2/CD3z; SEQ ID NO:24). CER-1250 has the same intracellular signaling domains as […] but has a mutated IgV domain with AAAA substitution to abrogate phosphatidylserine binding. Niraparib (0.5 μM) and olaparib (1.5 μM) were used to expose phosphatidylserine on the surface of A2780 cells for CER T cell recognition and cytotoxicity, T-cell activation, and cytokine responses were evaluated. Uptake of antigen by CER-1236 T cells was modeled with human papilloma virus E7 antigen-expressing squamous carcinoma (SCC152) TMEM30A phospholipid flippase knockout cells. […]

[1] = system: A2780 ovarian cancer cells; experiment: T cell phenotype (CCR7, CD4/CD8) and proliferation in A2780 / PARP inhibitor co-culture; type: cell-based, human; details: for CCR7 expression (% CCR7+ cells in Tim4+ T cells): 120 hours co-culture with olaparib-treated A2780 cells; for CER T cell proliferation: co-cultures treated with PARPi vs wtTIM-4 T cells or no drug, E:T 1:1
From the text: FIGS. 27A-27B show a (FIG. 27A) schematic of chimeric Tim4 receptors, CER-1234 and CER1236 of the present disclosure; and (FIG. 27B) a schematic of assay set up for assessing immune phenotype of the chimeric Tim4 receptors in co-culture with PARP inhibitor treated ovarian cancer cells. CER-1234 and CER1236 have an extracellular Tim4 binding domain, CD28 transmembrane domain, CD28 signaling domain, TLR2 signaling domain, and CD3ζ signaling domain, and showing the orientation of the signaling domains in the chimeric Tim4 receptor constructs. A control molecule, CER-1183, having a Tim4 extracellular binding domain, a Tim4 transmembrane domain, and Tim4 signaling domain is also depicted.
Samples on bar graph from left to right: A2780+ T cell, A2780+ T cell +niraparib, and A2780+ T cell +olaparib. […] For FIGS. 29A-29C, co-culture conditions A2780+ T cell; A2780+ T cell +niraparib; A27080+ T cell +olaparib are shown from left to right in the bar graph for each donor T cell sample.
FIGS. 30A-30C show CD4/CD8 T cell ratio at 120 hours of co-culture of chimeric Tim4 receptor transduced T cells, olaparib or niraparib, and target A2780 ovarian cancer cells. Samples on bar graph from left to right: A2780+ T cell, A2780+T cell +niraparib, and A2780+ T cell +olaparib. […] For FIGS. 4A-4C, co-culture conditions A2780+ T cell; A2780+ T cell +niraparib; A27080+T cell +olaparib are shown from left to right in the bar graph for each donor T cell sample.
Expression of TIM-4, CD45RA, and CCR7 as well as CD4/CD8 ratios were evaluated by flow cytometry using commercially available fluorochrome-conjugated antibodies. Proliferation was measured by flow cytometry using precision count beads to determine the absolute counts of viable T cells at the end of the co-culture. T-cell proliferation is reported as the fold expansion of T cell counts at 120 hours relative to 0 hours.

Substance: CER-1234: chimeric Tim4 receptor: Tim4 binding domain-CD28tm-CD28-TLR2 TIR-CD3z, SEQ ID NO:18; tested as transduced T cells
- uptake/engulfment of JeKo-1 PS+ (TMEM30A−/−) tumor cell fragments (Jeko1 TMEM30A−/− cells): increased uptake of JeKo-1 PS^+ tumor cell fragments
- antigen presentation function versus untransduced T cells (E7 TCR T cells): display better antigen presentation function than untransduced T cells
- antigen presentation function, overall (FIGS. 50-54) (E7 TCR T cells): did not show any antigen presentation function over untransduced T cells in some experiments
- CCR7 expression (% CCR7+ cells in Tim4+ T cells) [1]: Higher CCR7 expression
- CER T cell proliferation [1]: proliferated in co-cultures treated with PARPi

Substance: CER-1236: chimeric Tim4 receptor: Tim4 binding domain-CD28tm-CD28-CD3z-TLR2 TIR, SEQ ID NO:19; tested as transduced T cells
- phagocytic index (frequency and magnitude of uptake) (Jeko1 TMEM30A−/− cells; compared to wtTim-4, CER1250 and CER1236+actin polymerization inhibitor): Higher frequency and magnitude of uptake
- uptake/engulfment of JeKo-1 PS+ (TMEM30A−/−) tumor cell fragments (Jeko1 TMEM30A−/− cells): increased uptake of JeKo-1 PS^+ tumor cell fragments; also recorded: exhibited increased engulfment of Jeko1 TMEM30A^−/− cells
- HLA-DR MFI versus untransduced T cells (E7 TCR T cells; FIG. 50, FIG. 51, FIG. 54): significant difference in HLA-DR MFI
- antigen presentation function versus untransduced T cells (E7 TCR T cells): display better antigen presentation function than untransduced T cells
- HLA class I dependence of E7 TCR activation (E7 TCR T cells; HLA-I blocking vs isotype antibody): dependent on antigen presentation via the HLA class I system
- activation (HLA-DR) of autologous E7 TCR T cells (E7 TCR T cells): induced HLA-DR on E7 TCR cells
- activation (HLA-DR) of autologous E7 TCR T cells (E7 TCR T cells; listed as CER1236): supported greater activation of autologous E7 TCR T cells
- increase of activation status of E7 TCR T cells (E7 TCR T cells; exposed to TMEM30A″ SCC152 cancer cells relative to CER-1236 T cells alone): 5 fold
- antigen presentation function, overall (FIGS. 50-54) (E7 TCR T cells): consistently had better antigen presentation function compared to untransduced T cells
- CD4/CD8 ratio ([1]; 120 hours co-culture with PARPi-treated A2780, donor 38 and donor 41): higher CD4/CD8 ratios
- CCR7 expression (% CCR7+ cells in Tim4+ T cells) [1]: Higher CCR7 expression
- CER T cell proliferation [1]: proliferated in co-cultures treated with PARPi

Source: patent US20250127896A1, “CHIMERIC TIM4 RECEPTORS AND USES THEREOF” (CERO THERAPEUTICS HOLDINGS, INC., priority 2021, published 2025)
